Experimental data reported in patent US10677782B2, “Methods of determining interferon having direct inhibitory effects on tumors and uses thereof” (SUPERLAB FAR EAST LIMITED, priority 2013, dated 2020).

How the values were obtained:
[1] = test system: procaspase-3, cleaved caspase-3, procaspase-8, cleaved caspase-8, PARP in A549 cells; assay: Apoptosis-related molecular markers by Western Blot; type: cell-based, human; settings: 24 hr or 48 hr; interferons at 10 mcg/ml
Text: (§1) Thereafter, apoptosis-related molecular markers were monitored by Western Blot. The primary antibodies used were mouse monoclonal anti-beta-tubulin (1:2000, Cat #: CW0098A) and mouse monoclonal anti-GAPDH (1:2000, Cat #: CW0100A) (Kangwei Biotechnology, China); mouse monoclonal anti-PARP (1:1000, Cat #: se-2007, Santa Cruz Biotechnology, Inc.); rabbit monoclonal anti-procaspase 3 (1:1000, Cat #: 9665), and rabbit polyclonal anti-cleaved caspase 3 (1:1000, Cat #: 9661) (Cell Signaling Technology, USA); goat polyclonal anti-procaspase 8 (1:1000, Cat #: sc-6136, Santa Cruz Biotechnology, Inc); rabbit monoclonal anti-cleaved caspase 8 (1:1000, Cat #: 9496) (Cell Signaling Technology, USA).

[2] = test system: procaspase-3, cleaved caspase-3, procaspase-8, cleaved caspase-8, PARP in SW620 cells; assay: as above; type: cell-based, human; settings: 24 hr or 48 hr; interferons at 10 mcg/ml
Text: as §1

human hepatoma SMMC-7721 = assay: Human hepatoma SMMC-7721 xenografts in nude mice (Example 1); type: in vivo; settings: 5 mg/kg i.v.
Procedure: The test article was used without dilution. It was stored at 4° C. until thawed for injection.
The animals used were 4-6 weeks old male BALB/cA nu/nu mice, weighing about 23±2 g, obtained from the Shanghai Institute of Materia Medica (Shanghai, P.R. China). The study protocol was reviewed by the Committee on the Use and Care of Animals of Shanghai Institute of Materia Medica for compliance with regulations, and Committee approval was obtained prior to study initiation. Wherever possible, procedures used in this study were designed to avoid or minimize discomfort, distress, and pain to the animals. Animals that experience severe or chronic pain or distress that could not be relieved were painlessly euthanized, in accordance to regulations. Animals were housed 6 to a cage. They were ear-marked with ear hole punch identification. The room temperature was maintained at 25° C.±1° C. Lighting was set at 12 hr on and 12 hr off. Food was provided ad libitum. City tap water, filtered with a 5 micrometer (μm) filter, was provided to the animals ad libitum via water bottles. Neither the Study Director nor Huiyang Life Science and Technology Corp. was aware of any contaminant in the food or water that would interfere with or influence the intent and purpose of this study.
The test article (rSIFN-co) and the vehicle control were each administered intratumorally (i.t.). The test article was administered in a volume of 0.05 ml-0.15 ml per mouse per treatment, depending on the group to which the animal was assigned. […] Normal saline was injected in a volume of 0.15 ml per mouse, which was used as vehicle control.
Animals were assigned to treatment groups randomly. Initially, all animals were placed in one large animal cage. For assignment to the study, they were later separately housed, with 6 animals per cage per treatment group. Groups 1 and 2 are Control groups in which the animals were each administered the vehicle every other day after the first treatment. […] The animals in Groups 4, 5 and 6 were each given rSIFN-co every other day after the first treatment at 0.15 mg/mouse (Group 4) or 0.10 mg/mouse (Group 5) or 0.05 mg/mouse (Group 6), respectively. Tumor growth was monitored by measuring the length and width of each tumor twice a week during the course of the study. Each animal was also weighed twice a week during the course of the study.
(§2) Before commencement of this study, the xenografts were passaged twice in nude mice. Under sterile conditions, well-grown tumors were cut into 1.5 mm^3 fragments and one such fragment was injected by trocar needle into the right flank of each study animal. […] Individual tumor size (length and width) was measured twice per week with microcalipers. Tumor volume (V) was calculated using the formula: V=(length×width^2)/2. Individual relative tumor volume (RTV) was calculated using the formula: RTV=Vt/V0, where Vt is the tumor volume on the day of measurement and V0 is the tumor volume on the day of first treatment. Therapeutic effect of the test article or control article was expressed in terms of TIC (%), using the formula: TIC (%) (mean RTV of the treated group/mean RTV of the control group)×100%; and in terms of % Inhibition, using the formula: % Inhibition=100%−T/C %.

[3] = test system: Human Cervical Cancer Hela Xenografts; assay: Human cervical cancer Hela xenografts in nude mice (Example 2); type: in vivo; settings: 5 mg/kg i.v.
Procedure: as §2
Then 1.5 mm^3 fragments were prepared for s.c. implantation into the animals.

[4] = test system: Human Colon Cancer HT-29 Xenografts; assay: Human colon cancer HT-29 xenografts in nude mice (Example 3); type: in vivo; settings: 5 mg/kg i.v.
Procedure: as §2
Then, 1.5 mm^3 fragments were prepared for s.c. implantation into the test animals.

[5] = test system: human lung cancer SPC-A4 xenografts; assay: Human lung cancer SPC-A4 xenografts in nude mice (Example 4); type: in vivo; settings: 5 mg/kg i.v.
Procedure: as §2
The 1.5 mm^3 fragments were then used for s.c. implantation into the test animals.

Row | Compound | level of apoptosis-related molecular markers (procaspase-3, procaspase-8, PARP, cleaved caspase-3, cleaved caspase-8) [1] | level of apoptosis-related molecular markers (procaspase-3, procaspase-8, PARP, cleaved caspase-3, cleaved caspase-8) [2] | TV (mm^3, mean ± SD) (D0) (human hepatoma SMMC-7721; day 0, start of treatment) [mm^3] | TV (mm^3, mean ± SD) (D21) (human hepatoma SMMC-7721; day 21) [mm^3] | TV (mm^3, mean ± SD) (D0) ([3]; day 0, start of treatment) [mm^3] | TV (mm^3, mean ± SD) (D28) ([3]; day 28) [mm^3] | TV (mm^3, mean ± SD) (D0) ([4]; day 0, start of treatment) [mm^3] | TV (mm^3, mean ± SD) (D28) ([4]; day 28) [mm^3] | TV (mm^3, mean ± SD) (D0) ([5]; day 0, start of treatment) [mm^3] | TV (mm^3, mean ± SD) (D21) ([5]; day 21) [mm^3]
1 | O=c1[nH]cc(F)c(=O)[nH]1 [5FU, reference compound] | significant reduction of in the level of procaspase-3, procaspase-8 and PARP, but exhibited an enhanced level of cleaved caspase-3 and cleaved caspase-8 | significant reduction of in the level of procaspase-3, procaspase-8 and PARP, but exhibited an enhanced level of cleaved caspase-3 and cleaved caspase-8 | – | – | – | – | – | – | – | –
2 | CO[C@@]12[C@H](COC(N)=O)C3=C(C(=O)C(C)=C(N)C3=O)N1C[C@@H]1N[C@@H]12 [MMC, Mitomycin C, reference compound] | – | – | 125 ± 35 | 621 ± 247 | 130 ± 28 | 676 ± 358 | 132 ± 22 | 395 ± 95 | 166 ± 42 | 1831 ± 540
